Data from patent US20240408094A1, “INHIBITION OF USP7 INDUCES P53-INDEPENDENT TUMOR GROWTH SUPPRESSION IN TRIPLE-NEGATIVE BREAST CANCERS BY DESTABILIZING FOXM1” (The Trustees of Columbia University in the City of New York, priority 2023, published 2024).
Where a SMILES comes first, the peptide text is derived from it. The star is where a group is joined. Cbz = O=C(OCc1ccccc1)*

Columns and labels:
[1] = biological target: T1, USP7 (Homo sapiens, UniProt Q93009); assay: Rescue of PU7-1-mediated USP7 degradation by pathway inhibitors in CAL33; format: cell-based; conditions: CAL33, 5 μM PU7-1; 5 μM MLN4924, 25 μM Chloroquine or 5 μM MG132 for 24 h
T1 construct: used to treat CAL33 cells that express high levels of USP7 protein; endogenous in cells; host or cells: CAL33 (human head and neck squamous cell cancer); for A6 also the CRBN CRISPR knockout CAL33
T1 sequence (Q93009 whole entry): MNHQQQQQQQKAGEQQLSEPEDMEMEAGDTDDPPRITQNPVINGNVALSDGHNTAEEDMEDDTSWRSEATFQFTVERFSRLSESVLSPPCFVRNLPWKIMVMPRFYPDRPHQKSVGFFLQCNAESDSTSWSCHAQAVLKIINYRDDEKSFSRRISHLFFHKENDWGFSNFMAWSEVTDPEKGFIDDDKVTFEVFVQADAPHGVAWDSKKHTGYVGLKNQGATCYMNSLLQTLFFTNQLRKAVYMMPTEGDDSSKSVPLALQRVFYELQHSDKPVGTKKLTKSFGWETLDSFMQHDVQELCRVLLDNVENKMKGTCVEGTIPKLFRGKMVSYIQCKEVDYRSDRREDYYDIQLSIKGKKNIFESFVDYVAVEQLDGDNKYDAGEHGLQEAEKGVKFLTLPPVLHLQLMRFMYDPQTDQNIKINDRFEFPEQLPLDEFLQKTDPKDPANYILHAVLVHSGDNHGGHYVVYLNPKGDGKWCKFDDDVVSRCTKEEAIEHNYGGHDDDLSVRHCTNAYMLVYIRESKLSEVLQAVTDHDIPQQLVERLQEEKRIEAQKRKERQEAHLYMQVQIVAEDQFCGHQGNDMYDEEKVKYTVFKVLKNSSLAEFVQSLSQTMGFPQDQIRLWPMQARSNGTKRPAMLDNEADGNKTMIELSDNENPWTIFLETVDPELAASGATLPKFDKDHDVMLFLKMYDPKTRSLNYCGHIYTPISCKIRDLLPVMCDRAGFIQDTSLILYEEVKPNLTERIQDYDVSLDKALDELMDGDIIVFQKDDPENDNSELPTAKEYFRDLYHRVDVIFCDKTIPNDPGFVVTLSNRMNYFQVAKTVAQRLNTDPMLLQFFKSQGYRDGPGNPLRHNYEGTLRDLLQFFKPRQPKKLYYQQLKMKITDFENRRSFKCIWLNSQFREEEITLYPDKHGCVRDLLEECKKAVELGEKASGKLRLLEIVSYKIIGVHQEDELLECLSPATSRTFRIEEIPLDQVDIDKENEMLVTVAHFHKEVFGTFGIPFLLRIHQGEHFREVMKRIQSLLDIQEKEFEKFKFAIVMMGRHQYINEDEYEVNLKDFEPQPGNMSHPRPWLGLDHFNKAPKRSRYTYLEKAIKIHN
Method: USP7 protein levels were detected by immunoblots. […] USP7 protein levels were measured by immunoblots. […] USP7 protein levels were detected by immunoblots, then quantified by ImageJ after normalized to internal control β-actin. Half maximal degradation concentration (DC50) was calculated by Graphpad Prism.
To investigate the mechanism of action of PU7-1, CRBN knockout (KO) CAL33 cell line was generated using CRISPR-Cas9 technology. Control and CRBN KO cells were treated with 2.5 μM of PU7-1 for 72 h and then the expression levels of USP7 and CRBN proteins were detected by western blot analysis. CRBN protein was undetectable in the KO cells (FIG. 3H). […] CAL33 cells were first treated with 5 μM of PU7-1 for 48 h to degrade the USP7 proteins, and then treated with 5 μM of MLN4924, 25 μM of Chloroquine (CLQ) or 5 μM of MG132 for additional 24 h.

[2] = test system: FOXM1; assay: Block of PU7-1-induced FOXM1 destabilization by pathway inhibitors in CAL33; format: cell-based, human; conditions: CAL33, 10 μM PU7-1 72 h; 1 μM MLN4924 or BafA1 24 h, 10 μM MG132 6 h
[3] = biological target: T1, USP7; assay: USP7 protein degradation by western blot in CAL33 cells; format: cell-based; conditions: CAL33 and A549 cells, 2.5 μM, 48 h
Method: To specifically degrade USP7, a set of 66 PROTAC compounds were designed and synthesized that contain an USP7 specific binding moiety XL177A and an E3 ubiquitin ligase (CRBN or VHL) binding moiety connected by different linkers. All putative USP7 PROTACs were used to treat CAL33 cells that express high levels of USP7 protein, and then the USP7 protein levels were determined by western blot (FIGS. 10A and 10B). Through initial screening, PU7-1 was identified as a potential USP7 degrader (FIG. 3A and FIG. 10). […] The effect of PU7-1 was also tested in several human cancer cells harboring wild-type p53. […] In addition, to exclude the possibility that PU7-1 affects the USP7 protein levels by regulating its transcription, a quantitative real-time PCR was performed in CAL33 treated with PU7-1 for 72 h. […]
Cells were lysed in FLAG lysis buffer (50 mM Tris-HCl (pH 7.3), 137 mM NaCl, 10 mM NaF, 0.5 mM EDTA, 1% Triton X-100, 0.2% Sarkosyl, 10% glycerol) freshly supplemented with protease inhibitor cocktail. Protein concentration was determined by the Bio-Rad protein assay. […] Membranes were blocked with 5% (w/v) nonfat milk in Tris-buffered saline with Tween-20 (TBST), incubated with primary antibodies, then secondary HRP-conjugated antibodies (Jackson ImmunoResearch, 1:10000 dilution) and detected on autoradiographic films after incubating with ECL (Thermo Scientific, #32106). […]

Structure (SMILES)	effect on USP7 degradation mediated by PU7-1 [1]	block of PU7-1-induced destabilization of FOXM1 [2]	capability to degrade USP7 protein [3]
CCN(CC)CCCC(C)Nc1ccnc2cc(Cl)ccc12 (stereo not drawn) [Chloroquine]	no effect	–	–
CC(C)C[C@@H](C=O)NC(=O)[C@H](CC(C)C)NC(=O)[C@H](CC(C)C)NC(=O)OCc1ccccc1 [MG132] (Cbz-Leu-Leu-Leu-aldehyde)	significantly rescued	readily blocked	–
NS(=O)(=O)OC[C@@H]1C[C@@H](n2ccc3c(N[C@H]4CCc5ccccc54)ncnc32)C[C@@H]1O [MLN4924]	significantly rescued	readily blocked	–
CN1C(=O)CCC(N2Cc3c(CCCCCN4CCN(CCC(=O)Nc5ccc6c(=O)n(CC7(O)CCN(C(=O)C(CCCNC(=O)c8ccc9c(Cl)c%10c(nc9c8)CCCC%10)Cc8ccccc8)CC7)cnc6c5)CC4)cccc3C2=O)C1=O (stereo not drawn) [PU7-1N, N-(4-benzyl-5-(4-hydroxy-4-((7-(3-(4-(5-(2-(1-methyl-2,6-dioxopiperidin-3-yl)-1-oxoisoindolin-4-yl)pentyl)piperazin-1-yl)propanamido)-4-oxoquinazolin-3 (4H)-yl)methyl)piperidin-1-yl)-5-oxopentyl)-9-chloro-5,6,7,8-tetrahydroacridine-3-carboxamide]	–	–	defective capability to degrade USP7 protein
